We go through eleven molecules from patent US7371733B2, “Anti bacterial compounds” (Utah State University, priority 2006, dated 2008).

Assay [1] concerns S. aureus (ATCC 25923). As to the kind of experiment: MIC, standard reference strain. Particulars: for MIC: Staphylococcus aureus, ATCC25923, read-out: Minimum Inhibitory Concentrations (MIC); for Minimum Inhibitory Concentrations (MIC): Table 2 entry 8, S. aureus (ATCC 25923).
Assay [2] concerns E. coli (TG1). As to the kind of experiment: MIC, standard dilution and diffusion assay, aminoglycoside susceptible strain. As to conditions: for MIC: Escherichia coli; for Minimum Inhibitory Concentrations (MIC): Table 2 entry 2, E. coli (TG1) aminoglycoside susceptible strain.
Description: (§1) After the synthesis was completed, both representative aminoglycosides were assayed in standard dilution and diffusion assay against aminoglycoside susceptible and resistant strains of Escherichia coli using amikacin, kanamycin, ribostamycin, and butirosin as the controls. One resistant strain is equipped with the pTZ19-3 plasmid encoded for APH(3′)-I, which renders resistance to kanamycin, neomycin, lividomycin, paromomycin, and ribostamycin. The other resistant strain is equipped with the pSF815 plasmid encoded for AAC(6′) and APH(2″), which produces a bifunctional enzyme that catalyzes acetylation of amino group at C-6′ and phosphorylation of hydroxyl group at C-2″ position. This bifunctional enzyme enables bacteria to acquire resistance against gentamycin, amikacin, tobramycin, netilmicin, and kanamycin.
(§2) E. coli (pSF815) and E. coli (pTZ19U-3) are laboratory resistant strains using E. coli (TG1) as the host.
Assay [3] relates to Klebsiella pneumoniae (ATCC 700603). As to the kind of experiment: microbe, parasite or virus in culture. As to conditions: ATCC700603, read-out: Minimum Inhibitory Concentrations (MIC).
Excerpt: as §2
Assay [4] relates to Staphylococcus aureus (ATCC 33591) (MRSA). As to the kind of experiment: MIC, methicillin-resistant S. aureus. Particulars: for MIC: Staphylococcus aureus, ATCC33591|MRSA, read-out: Minimum Inhibitory Concentrations (MIC); for Minimum Inhibitory Concentrations (MIC): Table 2 entry 7, Staphylococcus aureus (ATCC 33591) (MRSA).
Excerpt: as §2
In assay [5] the test system is Pseudomonas aeruginosa (ATCC 27853). In words: microbe, parasite or virus in culture. As to conditions: ATCC27853, read-out: Minimum Inhibitory Concentrations (MIC).
Excerpt: as §2
Assay [6] relates to E. coli (TG1) (pSF815). As to the kind of experiment: microbe, parasite or virus in culture. As to conditions: Escherichia coli.
Description: as §1, §2
The subject of assay [7] is E. coli (TG1) (pTZ19U-3). In words: microbe, parasite or virus in culture. As to conditions: Escherichia coli.
Description: as §1, §2
Assay [8] deals with Escherichia coli (ATCC 25922). In words: MIC, standard reference strain. As to conditions: for MIC: Escherichia coli, ATCC25922, read-out: Minimum Inhibitory Concentrations (MIC); for Minimum Inhibitory Concentrations (MIC): Table 2 entry 1, Escherichia coli (ATCC 25922).
Excerpt: as §2
Assay [9] deals with K. pneumoniae (ATCC 13883). As to the kind of experiment: MIC, standard reference strain. As to conditions: for MIC: Klebsiella pneumoniae, ATCC13883, read-out: Minimum Inhibitory Concentrations (MIC); for Minimum Inhibitory Concentrations (MIC): Table 2 entry 6, K. pneumoniae (ATCC 13883).
Excerpt: as §2
In assay [10] the test system is Pseudomonas aeruginosa (ATCC 27853). Particulars: for Minimum Inhibitory Concentrations (MIC): Table 2 entry 9, Pseudomonas aeruginosa (ATCC 27853).
Excerpt: as §2
Assay [11] relates to E. coli (TG1) (pTZ19U-3). Particulars: for Minimum Inhibitory Concentration: Table 1, E. coli (TG1) (pTZ19U-3), plasmid encoded for APH(3′)-I; for Minimum Inhibitory Concentrations (MIC): Table 2 entry 4, E. coli (TG1) pTZ19U-3 plasmid encoded for APH(3′)-I.
Description: as §1, §2
Assay [12] has as its system Klebsiella pneumoniae (ATCC 700603). As to conditions: Table 2 entry 5.
Excerpt: as §2
Assay [13] relates to E. coli (TG1) (pSF815). Particulars: for Minimum Inhibitory Concentration: Table 1, E. coli (TG1) (pSF815), plasmid encoded for AAC6′/APH2″; for Minimum Inhibitory Concentrations (MIC): Table 2 entry 3, E. coli (TG1) pSF815 plasmid encoded for AAC(6′)/APH(2″).
Description: as §1, §2
Where [14] appears, read: read-out: Minimum Inhibitory Concentration.
The mark [15] stands for this setting: read-out: Minimum Inhibitory Concentrations (MIC).

≈ marks a conversion by molar mass, not a printed value. Read-outs that look alike come from different tables or passages of the source.

For the molecule `NCC[C@H](O)C(=O)N[C@@H]1C[C@H](N)[C@@H](O[C@H]2O[C@H](CN)[C@@H](O)[C@H](O)[C@H]2O)[C@H](O)[C@H]1O[C@H]1O[C@H](CO)[C@@H](O)[C@H](N)[C@H]1O` [Amikacin, amikacin], the MIC in [1] is 1 µg/mL (≈ 1.71 µM); in [2] (setting [14]), 1 µg/mL (≈ 1.71 µM); in [2] (setting [15]) it was 1 µg/mL (≈ 1.71 µM); in assay [3], 0.5 to 1 µg/mL (≈ 0.854 to 1.71 µM); in [4], 16 µg/mL (≈ 27.3 µM); in [5], 0.5 to 1 µg/mL (≈ 0.854 to 1.71 µM). For the same molecule, the MIC turned out to be 1 µg/mL (≈ 1.71 µM) in assay [6] (setting [14]); 1 µg/mL (≈ 1.71 µM) in [6] (setting [15]); 0.5 µg/mL (≈ 0.854 µM) in [7] (setting [14]); 0.5 µg/mL (≈ 0.854 µM) in assay [7] (setting [15]); 1 µg/mL (≈ 1.71 µM) in assay [8]; 1 µg/mL (≈ 1.71 µM) in assay [9].

In the case of `CC1O[C@@H](O[C@@H]2C(O)[C@H](NC(=O)[C@@H](O)CCN)CC(N)[C@H]2O[C@H]2OC(CN)[C@@H](O)[C@H](O)C2N)C(O)[C@@H](O)[C@@H]1N` (stereo partly shown) [JT005], the MIC in [2] (setting [14]) is 4 µg/mL (≈ 7.03 µM); in [2] (setting [15]) it was 4 µg/mL (≈ 7.03 µM); in assay [3], 1 to 2 µg/mL (≈ 1.76 to 3.52 µM); in assay [6] (setting [14]) it was 4 µg/mL (≈ 7.03 µM); in assay [6] (setting [15]), 4 µg/mL (≈ 7.03 µM); in assay [7] (setting [14]) it was 4 µg/mL (≈ 7.03 µM). The figures for the MIC in [7] (setting [15]) and in assay [9] were 4 µg/mL (≈ 7.03 µM) and 2 µg/mL (≈ 3.52 µM), respectively. The “Minimum Inhibitory Concentrations (MIC)” value in assay [4] and in [10] was “Inactive” each time.

As for `CC1O[C@@H](O[C@H]2C(O[C@H]3OC(CN)[C@@H](O)[C@H](O)C3N)C(N)C[C@@H](NC(=O)[C@@H](O)CCN)C2OCCN)C(O)[C@@H](O)[C@@H]1N` (stereo partly shown) [JT050], the MIC was determined as 8 µg/mL (≈ 13.1 µM) in [2] (setting [14]), 2 µg/mL (≈ 3.27 µM) in assay [6] (setting [14]) and 4 µg/mL (≈ 6.54 µM) in assay [7] (setting [14]).

For `CC1O[C@@H](O[C@H]2C(O[C@H]3OC(CN)CCC3N)C(N)C[C@@H](N)C2O)C(O)[C@@H](O)[C@@H]1N` (stereo partly shown) [RR501, 3′,4′-Dideoxy Pyranmycin], the MIC in assay [2] (setting [14]) is 8 µg/mL (≈ 18.4 µM); in [2] (setting [15]), 8 µg/mL (≈ 18.4 µM); in [3], 2 to 4 µg/mL (≈ 4.59 to 9.18 µM); in assay [4], 4 µg/mL (≈ 9.18 µM); in [6] (setting [14]), 4 µg/mL (≈ 9.18 µM); in assay [6] (setting [15]), 4 µg/mL (≈ 9.18 µM). In addition, the values for the MIC in assay [7] (setting [14]), in assay [7] (setting [15]) and in assay [9] were 4 µg/mL (≈ 9.18 µM), 4 µg/mL (≈ 9.18 µM) and 2 to 4 µg/mL (≈ 4.59 to 9.18 µM), respectively. Moreover, in assay [11] (text statement summarising Table 1), the “activity against resistant bacteria equipped with APH(3′), in words” value is recorded as “active”. The “Minimum Inhibitory Concentrations (MIC)” value in [10] is reported as “Inactive”.

As for `NC[C@H]1O[C@H](O[C@H]2[C@H](O[C@@H]3O[C@H](CO)[C@@H](O)[C@H]3O)[C@@H](O)[C@H](N)C[C@@H]2N)[C@H](N)[C@@H](O)[C@@H]1O` [Ribostamycin, ribostamycin], the MIC in [1] stood at 8 µg/mL (≈ 17.6 µM); in [2] (setting [14]), 2 µg/mL (≈ 4.4 µM); in assay [2] (setting [15]) it was 2 µg/mL (≈ 4.4 µM); in assay [6] (setting [14]) it was 16 µg/mL (≈ 35.2 µM); in [6] (setting [15]), 16 µg/mL (≈ 35.2 µM); in assay [7] (setting [15]), 32 µg/mL (≈ 70.4 µM). For the same molecule, the figures for the MIC in assay [8] and in [9] were 8 µg/mL (≈ 17.6 µM) and 4 µg/mL (≈ 8.8 µM), respectively. Also, in [11], the “Minimum Inhibitory Concentration” value was “Inactive”. In addition, the “Minimum Inhibitory Concentrations (MIC)” value in [4], in assay [12] and in [10] was “Inactive” in each case.

For `CC1O[C@@H](O[C@@H]2C(O)C(N)CC(N)C2O[C@H]2OC(CN)[C@@H](O)C(O)C2N)C(O)C(O)[C@@H]1N` (stereo partly shown) [TC005, pyranmycin], the MIC in assay [2] (setting [14]) and in assay [7] (setting [14]) was 8 µg/mL (≈ 17.1 µM) each time. In addition, the “Minimum Inhibitory Concentration” value in assay [13] is given as “Inactive”.

`CC1O[C@@H](O[C@@H]2C(OCCN)C(N)CC(N)C2O[C@H]2OC(CN)[C@@H](O)C(O)C2N)C(O)C(O)[C@@H]1N` (stereo partly shown) [TC050]: the MIC in assay [2] (setting [14]) and in assay [7] (setting [14]) was 8 µg/mL (≈ 15.7 µM) in each case. Further, in assay [13], the “Minimum Inhibitory Concentration” value is on record as “Inactive”.

In the case of `C[C@H]1O[C@@H](O[C@@H]2[C@@H](O)[C@H](NC(=O)[C@@H](O)CCN)C[C@H](N)[C@H]2O[C@H]2O[C@H](CN)CC[C@H]2N)[C@H](O)[C@@H](O)[C@@H]1N` [pyrankacin], the MIC in assay [1] came to 2 µg/mL (≈ 3.73 µM); in assay [2] (setting [15]), 4 µg/mL (≈ 7.45 µM); in [3], 1 µg/mL (≈ 1.86 µM); in [4], 8 µg/mL (≈ 14.9 µM); in assay [5], 2 µg/mL (≈ 3.73 µM); in [6] (setting [15]) it was 1 µg/mL (≈ 1.86 µM). Also, the MIC is 1 µg/mL (≈ 1.86 µM) in assay [7] (setting [15]), 4 µg/mL (≈ 7.45 µM) in assay [8] and 2 µg/mL (≈ 3.73 µM) in assay [9]. Besides, in assay [10] (text statement summarising Table 2), the “activity against P. aeruginosa, in words” value is recorded as “active”.

As to butirosin, the “Minimum Inhibitory Concentrations (MIC)” value in assay [1] was 2 µg/mL; in assay [2] it was 1 µg/mL; in assay [11], 0.5 µg/mL; in [4] it was “Inactive”; in assay [13] it was 0.25 µg/mL; in assay [12], 0.5 µg/mL. The entries for the “Minimum Inhibitory Concentrations (MIC)” value in assay [10], in assay [8] and in [9] were “Inactive”, 2 µg/mL and 0.5 to 1 µg/mL, respectively. The “Minimum Inhibitory Concentration” value amounted to 0.5 µg/mL in assay [2] (Table 1, E. coli (TG1)); 0.5 µg/mL in assay [11]; 0.5 µg/mL in assay [13].

In the case of gentamicin, the “Minimum Inhibitory Concentrations (MIC)” value was 0.5 µg/mL in assay [1]; 2 µg/mL in assay [2]; 1 µg/mL in assay [11]; 4 µg/mL in assay [4]; “Inactive ^k” in [13]; 8 to 16 µg/mL in assay [12]. Also, the “Minimum Inhibitory Concentrations (MIC)” value in [10] is 0.5 to 1 µg/mL; in assay [8], 2 µg/mL; in assay [9] it was 1 µg/mL.

On to neomycin, for which the “Minimum Inhibitory Concentrations (MIC)” value in assay [1] was 1 µg/mL; in assay [2], 8 µg/mL; in [11], “Inactive”; in assay [4] it was “Inactive”; in assay [13], 2 µg/mL; in assay [12] it was “Inactive”. In addition, the results for the “Minimum Inhibitory Concentrations (MIC)” value in assay [10], in assay [8] and in [9] were “Inactive”, 4 µg/mL and 2 µg/mL, respectively.
